Test results taken from PMC7305236, “The atypical chemokine receptor ACKR3/CXCR7 is a broad-spectrum scavenger for opioid peptides” (Nature Communications, 2020).
pEC50: −log10 of the molar value. Read-outs that look alike come from different tables or passages of the source.

What was measured:
[1] = target: T1, U87 ACKR3 (Homo sapiens, UniProt P25106); assay: Figure 6c source data, U87 ACKR3; assay type: cell-based; conditions: Figure 6c inset, U87 ACKR3 + labelled peptide, titrated agonist not given
T1 construct: expressed in transfected cells
T1 sequence (P25106 whole entry): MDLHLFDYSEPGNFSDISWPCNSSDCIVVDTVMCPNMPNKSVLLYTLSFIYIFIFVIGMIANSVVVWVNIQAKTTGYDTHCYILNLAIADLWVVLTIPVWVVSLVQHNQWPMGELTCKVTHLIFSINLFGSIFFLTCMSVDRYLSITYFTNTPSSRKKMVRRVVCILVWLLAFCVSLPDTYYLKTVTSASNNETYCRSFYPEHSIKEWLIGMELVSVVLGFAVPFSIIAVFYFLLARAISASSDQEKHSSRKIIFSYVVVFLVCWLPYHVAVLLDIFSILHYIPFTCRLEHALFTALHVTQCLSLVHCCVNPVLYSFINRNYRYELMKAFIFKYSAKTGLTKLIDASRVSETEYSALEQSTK

[2] = target: T2, ACKR3 (Homo sapiens, UniProt P25106); assay type: cell-based; parameters: expressed in transfected cells; conditions: 100 nM
T2 sequence (P25106 whole entry): as above

[3] = target: T3, CXCR7 (Homo sapiens, UniProt P25106); assay: Figure S1a: screen of opioid peptides on CXCR7; assay type: cell-based
T3 construct: expressed in transfected cells; host or cells: U87 cells
T3 sequence (P25106 whole entry): as above

[4] = target: T4, CXCR4 (Homo sapiens, UniProt P61073); assay type: cell-based
T4 construct: expressed in transfected cells; host or cells: U87, transient cotransfection of pNBe vectors
T4 sequence (P61073 whole entry): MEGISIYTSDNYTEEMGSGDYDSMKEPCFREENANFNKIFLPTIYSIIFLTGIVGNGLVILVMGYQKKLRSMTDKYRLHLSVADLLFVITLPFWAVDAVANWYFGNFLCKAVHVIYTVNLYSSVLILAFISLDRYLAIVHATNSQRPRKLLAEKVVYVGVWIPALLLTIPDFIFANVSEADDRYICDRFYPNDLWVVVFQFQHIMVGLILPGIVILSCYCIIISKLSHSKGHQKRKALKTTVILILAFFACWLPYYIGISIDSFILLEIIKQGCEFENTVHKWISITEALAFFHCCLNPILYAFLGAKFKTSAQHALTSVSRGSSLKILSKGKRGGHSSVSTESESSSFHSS

[5] = target: T5, DOR (Homo sapiens, UniProt P41143); assay type: cell-based; conditions: 100 nM
T5 construct: expressed in transfected cells; host or cells: U87 (human glioblastoma)
T5 sequence (P41143 whole entry): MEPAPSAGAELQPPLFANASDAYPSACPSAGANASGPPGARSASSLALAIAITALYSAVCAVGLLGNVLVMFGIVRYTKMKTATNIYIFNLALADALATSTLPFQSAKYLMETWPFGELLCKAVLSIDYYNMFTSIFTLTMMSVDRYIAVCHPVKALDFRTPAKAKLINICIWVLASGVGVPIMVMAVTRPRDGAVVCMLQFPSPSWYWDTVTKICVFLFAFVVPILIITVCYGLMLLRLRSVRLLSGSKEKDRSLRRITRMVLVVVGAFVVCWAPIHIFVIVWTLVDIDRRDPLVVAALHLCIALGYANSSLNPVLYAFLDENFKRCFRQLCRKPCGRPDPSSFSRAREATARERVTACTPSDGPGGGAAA

[6] = target: NOP (Homo sapiens, UniProt P41146); assay: Activity of ligands towards NOP (source data Fig 4a, 4c); assay type: cell-based; conditions: 100 nM
Chain of NOP (P41146 whole entry): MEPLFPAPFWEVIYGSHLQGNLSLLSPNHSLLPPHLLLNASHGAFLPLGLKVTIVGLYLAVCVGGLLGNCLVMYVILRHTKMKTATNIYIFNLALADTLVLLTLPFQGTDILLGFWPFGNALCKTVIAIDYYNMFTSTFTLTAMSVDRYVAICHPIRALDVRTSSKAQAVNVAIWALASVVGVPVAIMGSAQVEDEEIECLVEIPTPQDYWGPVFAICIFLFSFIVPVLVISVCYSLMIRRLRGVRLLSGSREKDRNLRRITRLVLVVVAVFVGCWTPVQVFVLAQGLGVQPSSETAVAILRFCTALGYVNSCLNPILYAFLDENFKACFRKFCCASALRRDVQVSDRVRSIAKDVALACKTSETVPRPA

[7] = target: T6, KOR (Homo sapiens, UniProt P41145); assay type: cell-based; parameters: expressed in transfected cells; host or cells: U87 (human glioblastoma), transient co-transfection; conditions: 100 nM
T6 sequence (P41145 whole entry): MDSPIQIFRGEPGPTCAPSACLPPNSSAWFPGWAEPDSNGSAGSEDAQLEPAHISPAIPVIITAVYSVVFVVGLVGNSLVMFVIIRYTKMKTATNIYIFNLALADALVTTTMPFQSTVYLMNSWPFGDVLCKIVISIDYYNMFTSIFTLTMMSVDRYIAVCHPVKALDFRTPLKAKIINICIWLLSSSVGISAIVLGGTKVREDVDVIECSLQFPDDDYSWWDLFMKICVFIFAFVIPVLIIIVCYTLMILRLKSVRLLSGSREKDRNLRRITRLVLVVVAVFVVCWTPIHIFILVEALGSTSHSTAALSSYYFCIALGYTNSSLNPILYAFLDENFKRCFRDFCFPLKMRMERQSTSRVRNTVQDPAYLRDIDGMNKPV

[8] = target: T7, CCR1 (Homo sapiens, UniProt P32246); assay: Figure S2a opioid peptide screen on chemokine receptors; assay type: cell-based; parameters: dose or concentration left out as unconfirmed; conditions: replicate 1, read-out: CCR1 activity, ctrl+ = 100
T7 construct: expressed in transfected cells
T7 sequence (P32246 1-355): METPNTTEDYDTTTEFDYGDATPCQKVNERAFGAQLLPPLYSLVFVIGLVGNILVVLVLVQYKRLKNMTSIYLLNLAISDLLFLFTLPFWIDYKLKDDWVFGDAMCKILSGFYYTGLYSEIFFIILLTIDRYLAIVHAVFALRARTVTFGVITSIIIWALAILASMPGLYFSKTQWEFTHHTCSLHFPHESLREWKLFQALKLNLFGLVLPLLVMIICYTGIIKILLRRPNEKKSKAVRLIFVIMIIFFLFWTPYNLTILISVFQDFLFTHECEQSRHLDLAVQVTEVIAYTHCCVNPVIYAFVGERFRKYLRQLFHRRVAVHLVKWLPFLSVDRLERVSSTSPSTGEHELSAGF

[9] = target: T8, CCR6 (Homo sapiens, UniProt P51684); assay: as above; assay type: cell-based; parameters: dose or concentration left out as unconfirmed; conditions: replicate 1, read-out: CCR6 activity, ctrl+ = 100
T8 construct: expressed in transfected cells
T8 sequence (P51684 1-374): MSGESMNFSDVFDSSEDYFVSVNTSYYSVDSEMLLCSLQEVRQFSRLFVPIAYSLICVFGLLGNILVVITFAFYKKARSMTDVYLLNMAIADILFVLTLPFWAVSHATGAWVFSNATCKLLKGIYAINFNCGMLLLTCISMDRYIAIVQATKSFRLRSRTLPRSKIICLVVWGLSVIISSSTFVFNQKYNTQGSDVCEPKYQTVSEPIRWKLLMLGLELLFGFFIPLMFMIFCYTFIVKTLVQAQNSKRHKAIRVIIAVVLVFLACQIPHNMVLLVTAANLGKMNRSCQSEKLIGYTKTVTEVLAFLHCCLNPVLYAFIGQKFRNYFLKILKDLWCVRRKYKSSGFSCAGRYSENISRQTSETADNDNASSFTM

[10] = target: T9, CXCR3A (Homo sapiens, UniProt P49682); assay: as above; assay type: cell-based; parameters: dose or concentration left out as unconfirmed; conditions: replicate 1, read-out: CXCR3A activity, ctrl+ = 100
T9 construct: expressed in transfected cells; host or cells: U87 cells
T9 sequence (P49682 1-368): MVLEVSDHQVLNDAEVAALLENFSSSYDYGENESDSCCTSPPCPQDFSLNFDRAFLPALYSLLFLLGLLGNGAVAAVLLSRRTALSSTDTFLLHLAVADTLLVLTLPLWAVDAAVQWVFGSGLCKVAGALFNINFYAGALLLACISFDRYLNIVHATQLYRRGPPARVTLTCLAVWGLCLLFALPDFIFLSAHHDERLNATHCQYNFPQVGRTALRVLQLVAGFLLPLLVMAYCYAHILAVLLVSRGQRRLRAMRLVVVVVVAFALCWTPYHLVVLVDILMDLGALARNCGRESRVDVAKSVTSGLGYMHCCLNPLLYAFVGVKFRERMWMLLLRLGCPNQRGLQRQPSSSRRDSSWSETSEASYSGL

[11] = target: T10, ACKR2 (Homo sapiens, UniProt O00590); assay: as above; assay type: cell-based; parameters: dose or concentration left out as unconfirmed; conditions: replicate 2, read-out: ACKR2 activity, ctrl+ = 100
T10 construct: expressed in transfected cells; host or cells: U87 cells (human glioblastoma)
T10 sequence (O00590 1-384): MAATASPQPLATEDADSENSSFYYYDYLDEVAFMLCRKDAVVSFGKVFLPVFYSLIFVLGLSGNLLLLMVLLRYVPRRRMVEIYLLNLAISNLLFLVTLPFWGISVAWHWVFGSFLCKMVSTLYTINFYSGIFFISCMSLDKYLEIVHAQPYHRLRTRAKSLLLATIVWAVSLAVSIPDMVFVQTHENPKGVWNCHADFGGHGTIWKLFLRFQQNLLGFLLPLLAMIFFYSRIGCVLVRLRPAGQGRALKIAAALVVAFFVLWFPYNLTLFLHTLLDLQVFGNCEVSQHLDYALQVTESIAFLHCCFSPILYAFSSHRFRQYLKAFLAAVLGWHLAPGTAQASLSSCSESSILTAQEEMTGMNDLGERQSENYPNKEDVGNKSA

[12] = target: T2, ACKR3; assay: cell-based; parameters: dose or concentration left out as unconfirmed; conditions: read-out: ACKR3 activity, ctrl+ = 100, Figure S2a; replicate 2
[13] = target: T11, CCR3 (Homo sapiens, UniProt P51677); assay: Figure S2a opioid peptide screen on chemokine receptors; parameters: dose or concentration left out as unconfirmed; conditions: read-out: CCR3 activity, ctrl+ = 100, Figure S2a
T11 sequence (P51677 1-355): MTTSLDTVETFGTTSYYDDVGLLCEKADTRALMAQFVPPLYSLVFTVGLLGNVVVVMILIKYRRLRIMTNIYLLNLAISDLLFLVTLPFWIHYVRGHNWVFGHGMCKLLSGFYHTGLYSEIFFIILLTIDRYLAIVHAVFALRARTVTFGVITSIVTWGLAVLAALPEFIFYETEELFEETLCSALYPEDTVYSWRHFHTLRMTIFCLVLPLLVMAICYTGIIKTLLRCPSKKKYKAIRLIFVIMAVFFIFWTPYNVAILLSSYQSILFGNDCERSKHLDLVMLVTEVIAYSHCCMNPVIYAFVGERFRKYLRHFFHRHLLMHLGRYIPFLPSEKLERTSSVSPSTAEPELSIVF

[14] = target: T12, ACKR (Homo sapiens, UniProt P25106); assay: Figure 6h, ACKR, DMSO vs Bafilomycin treatment; assay type: cell-based; conditions: n = 3 or 4 as in cell
T12 construct: expressed in transfected cells; host or cells: U87 cells (human glioblastoma)
T12 sequence (P25106 whole entry): as the sequence (P25106 whole entry) above

[15] = target: T6, KOR; assay: Figure 6h, KOR, DMSO vs Bafilomycin treatment; assay type: cell-based; parameters: expressed in transfected cells; host or cells: U87 (human glioblastoma); conditions: n = 3 or 4 as in cell
[16] = 'DMSO vs Bafilomycin treatment'
[17] = first of two columns under 'DMSO vs Bafilomycin treatment' (presumably DMSO)

Q: H-MRRKFGGF-NH2 [LIH inverse] was tested. Which pEC50 ([1]; replicate 1) did it give?
A: 7.19

Q: What about the pEC50 ([1]; replicate 2) of the same compound?
A: 6.93

Q: And the pEC50 ([1]; replicate 3)?
A: 6.95

Q: What about the pEC50 ([1]; replicate 4) of the same compound?
A: 7.14

Q: With Buprenorphine as the compound, how does the “ACKR3 activity, Fig 4a” value ([2]; replicate 1) read?
A: -5.792

Q: And the “ACKR3 activity, Fig 4a” value ([2]; replicate 2)?
A: 26.4917

Q: And the “ACKR3 activity, Fig 4a” value ([2]; replicate 3)?
A: -14.8896

Q: How did the “Figure S1a value, CXCR7” value ([3]; replicate 1) turn out when CXCL11 was run?
A: 84.3234

Q: And the “Figure S1a value, CXCR7” value ([3]; replicate 2)?
A: 115.296

Q: What about the “Figure S1a value, CXCR4” value ([4]; replicate 1) of the same compound?
A: 49.1082

Q: And the “Figure S1a value, CXCR4” value ([4]; replicate 2)?
A: 78.3882

Q: Which “DOR activity, Fig 4a” value ([5]; replicate 1) does the source give for `C=CCN1CC[C@]23CCCC[C@H]2[C@H]1Cc1ccc(O)cc13` [Levallorphan] here?
A: -48.6722

Q: And the “DOR activity, Fig 4a” value ([5]; replicate 2)?
A: -49.4812

Q: And the “DOR activity, Fig 4a” value ([5]; replicate 3)?
A: -45.6651

Q: What about the “NOP activity, Fig 4a” value ([6]; replicate 1) of the same compound?
A: 19.6254

Q: And the “NOP activity, Fig 4a” value ([6]; replicate 2)?
A: -2.413

Q: What about the “NOP activity, Fig 4a” value ([6]; replicate 3) of the same compound?
A: -13.909

Q: And the “ACKR3 activity, Fig 4a” value ([2]; replicate 1)?
A: 29.7947

Q: And the “ACKR3 activity, Fig 4a” value ([2]; replicate 2)?
A: -20.4867

Q: What about the “ACKR3 activity, Fig 4a” value ([2]; replicate 3) of the same compound?
A: -0.5025

Q: And the “KOR activity, Fig 4a” value ([7]; replicate 1)?
A: -79.0502

Q: And the “KOR activity, Fig 4a” value ([7]; replicate 2)?
A: -66.9071

Q: What about the “KOR activity, Fig 4a” value ([7]; replicate 3) of the same compound?
A: -81.2861

Q: How did the activation [8] turn out when `CC[C@H](C)[C@H](NC(=O)[C@H](C)NC(=O)[C@H](CC(N)=O)NC(=O)[C@H](CCCCN)NC(=O)[C@H](Cc1ccccc1)NC(=O)[C@H](CC(C)C)NC(=O)[C@@H](NC(=O)[C@@H](NC(=O)[C@H](CC(C)C)NC(=O)[C@@H]1CCCN1C(=O)[C@@H](NC(=O)[C@H](CCC(N)=O)NC(=O)[C@H](CO)NC(=O)[C@H](CCCCN)NC(=O)[C@H](CCC(=O)O)NC(=O)[C@H](CO)NC(=O)[C@@H](NC(=O)[C@H](CCSC)NC(=O)[C@H](Cc1ccccc1)NC(=O)CNC(=O)CNC(=O)[C@@H](N)Cc1ccc(O)cc1)[C@@H](C)O)[C@@H](C)O)C(C)C)[C@@H](C)O)C(=O)N[C@H](C(=O)N[C@@H](CCCCN)C(=O)N[C@@H](CC(N)=O)C(=O)N[C@@H](C)C(=O)N[C@@H](Cc1ccc(O)cc1)C(=O)N[C@@H](CCCCN)C(=O)N[C@@H](CCCCN)C(=O)NCC(=O)N[C@@H](CCC(=O)O)C(=O)O)[C@@H](C)CC` [-endorphin] was run?
A: 6.2%

Q: What about the activation [9] of the same compound?
A: 1.21%

Q: What about the activation [10] of the same compound?
A: 2.35%

Q: And the activation [11]?
A: 16.8%

Q: What about the activation [12] of the same compound?
A: 3.39%

Q: And the activation ([13]; replicate 1)?
A: 5.63%

Q: And the activation ([13]; replicate 2)?
A: 8.01%

Q: How did the “Figure S1a value, CXCR4” value ([4]; replicate 1) turn out when `c1cc(CN2CCCNCCNCCCNCC2)ccc1CN1CCCNCCNCCCNCC1` [AMD3100] was run?
A: -2.401

Q: And the “Figure S1a value, CXCR4” value ([4]; replicate 2)?
A: 38.4908

Q: Which “Mean ± SEM (Figure 6h, ACKR)” value [14, 16] does the source give for `CSCC[C@H](NC(=O)[C@H](Cc1ccccc1)NC(=O)CNC(=O)CNC(=O)[C@@H](N)Cc1ccccc1)C(=O)N[C@@H](CCCNC(=N)N)C(=O)N[C@@H](CCCNC(=N)N)C(=O)N[C@@H](CCCCN)C(N)=O` [LIH383] here?
A: 25,99 ± 1,65, n=3

Q: And the “Mean ± SEM (Figure 6h, ACKR)” value [14, 17]?
A: 41,87 ± 2,846, n=3

Q: And the “Mean ± SEM (Figure 6h, KOR)” value [15, 16]?
A: 102,6 ± 3,011, n=3

Q: What about the “Mean ± SEM (Figure 6h, KOR)” value [15, 17] of the same compound?
A: 99,75 ± 4,761, n=3

Q: How did the “ACKR3 activity, Fig 4a” value ([2]; replicate 1) turn out when `Oc1ccc2c3c1O[C@H]1c4[nH]c5ccccc5c4C[C@@]4(O)[C@@H](C2)N(CC2CC2)CC[C@]314` [Naltrindole] was run?
A: 7.799

Q: What about the “ACKR3 activity, Fig 4a” value ([2]; replicate 2) of the same compound?
A: 7.647

Q: And the “ACKR3 activity, Fig 4a” value ([2]; replicate 3)?
A: 1.281

Q: For `C=CCN1CC[C@]23c4c5ccc(O)c4O[C@H]2C(=O)CC[C@@]3(O)[C@H]1C5` [Naloxone], which “ACKR3 activity, Fig 4a” value ([2]; replicate 1) is on record?
A: -16.5596

Q: And the “ACKR3 activity, Fig 4a” value ([2]; replicate 2)?
A: -16.7812

Q: And the “ACKR3 activity, Fig 4a” value ([2]; replicate 3)?
A: -9.5257

Q: `Oc1ccc2c3c1O[C@H]1c4[nH]c5c(c4C[C@@]4(O)[C@@H](C2)N(CC2CC2)CC[C@]314)C[C@@]1(O)[C@H]2Cc3ccc(O)c4c3[C@@]1(CCN2CC1CC1)[C@H]5O4` [nor-Binaltrophimine] was tested. Which “NOP activity, Fig 4a” value ([6]; replicate 1) did it give?
A: 13.2975

Q: What about the “NOP activity, Fig 4a” value ([6]; replicate 2) of the same compound?
A: 23.1448

Q: And the “NOP activity, Fig 4a” value ([6]; replicate 3)?
A: -11.7109

Q: What about the “ACKR3 activity, Fig 4a” value ([2]; replicate 1) of the same compound?
A: 6.23

Q: What about the “ACKR3 activity, Fig 4a” value ([2]; replicate 2) of the same compound?
A: 7.454

Q: And the “ACKR3 activity, Fig 4a” value ([2]; replicate 3)?
A: 1.2819
